Measurements: the supplement of paper PMC7017272
± gives the standard deviation of the averaged measurements. Blank lines part the entries; values can stand above or below the compound they belong to.

Tests used:
Conditions in all cases: treatment time: 3 days
UT-SCC-24A [1] = experiment: maximal % inhibition of viability relative to DMSO; higher = stronger effect
Protocol: (§1)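 HNSCC cell lines (500 cells/well, 384-well) were cultured on plastic, on top of (2D) or embedded (3D) in Matrigel or human leiomyoma matrix Myogel (500 ug/mL; Myogel 3D mixed with rat collagen I). Cells were treated for 3 days with 5 ten-fold concentrations of each drug, and viability was read by CellTiter-Glo. Viability was normalised to DMSO (0% inhibition) and 100 uM benzethonium chloride (100% inhibition) controls and fitted with the FIMM DSRT pipeline to give IC50 (nM), maximal % inhibition and the drug sensitivity score (DSS). Suffixes _1/_2/_3 on drug names are replicates.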

UT-SCC-81 [2] = experiment: relative IC50 (midpoint of the fitted curve; maximal inhibition may be below 50%); higher = less potent
How it was run: (§2)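 HPV-negative HNSCC cell lines were plated at 500 cells/well in 384-well plates, either on plastic, on wells coated with Matrigel or Myogel (500 µg/mL), or embedded in Matrigel or Myogel plus rat collagen I. Each compound was tested at five 10-fold concentrations over 3 days. Viability was measured by CellTiter-Glo 2.0 luminescence, and IC50, maximal inhibition and drug sensitivity score came from percent-inhibition dose–response curves fitted in the FIMM pipeline after normalisation to vehicle (0.1% DMSO) and cell-killing control wells.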

UT-SCC-42A [3] = experiment: as above
How it was run: as §2

UT-SCC-24A [4] = experiment: relative IC50 (midpoint of the fitted curve; maximal inhibition may be below 50%); higher = less potent
Protocol: as §1

UT-SCC-28 = experiment: drug sensitivity score (DSS); higher = more sensitive; extreme values may be limits of the assay
How it was run: as §2

UT-SCC-40 = experiment: as above
How it was run: as §2

UT-SCC-8 = experiment: as above
How it was run: as §2

UT-SCC-81 [5] = experiment: as above
How it was run: as §2

UT-SCC-42A [6] = experiment: as above
How it was run: as §2

UT-SCC-106A = experiment: as above
How it was run: as §2

UT-SCC-24B = experiment: as above
How it was run: as §2

UT-SCC-42B = experiment: as above
How it was run: as §2

UT-SCC-14 = experiment: as above
How it was run: as §2

UT-SCC-73 = experiment: as above
How it was run: as §2

UT-SCC-44 = experiment: as above
How it was run: as §2

[7] = culture condition: embedded in Matrigel
[8] = culture condition: embedded in Myogel + collagen I
[9] = culture condition: on top of Matrigel
[10] = culture condition: on top of Myogel
[11] = culture condition: plastic 2D (no matrix)

relative IC50 (UT-SCC-81 [2]; [9]): 5.89 nM
relative IC50 (UT-SCC-81 [2]; [11]): 151 nM
relative IC50 (UT-SCC-42A [3]; [7]): 4.26 nM
relative IC50 (UT-SCC-42A [3]; [8]): 11.3 nM
relative IC50 (UT-SCC-42A [3]; [9]): 4.67 nM
relative IC50 (UT-SCC-42A [3]; [11]): 9.23 nM
relative IC50 (UT-SCC-24A [4]; [9]): 1.23 nM
relative IC50 (UT-SCC-24A [4]; [11]): 1.21 nM
Compound: Cn1c(=O)c(F)c(Nc2ccc(I)cc2F)c2c(=O)n(C[C@@H](O)CO)cnc21 [TAK-733]
maximal % inhibition of viability (UT-SCC-24A [1]; [7]): 81.5 ± 1.9%
maximal % inhibition of viability (UT-SCC-24A [1]; [8]): 53.9 ± 2.1%
maximal % inhibition of viability (UT-SCC-24A [1]; [9]): 77.7 ± 1.1%
maximal % inhibition of viability (UT-SCC-24A [1]; [10]): 45.9 ± 4%
maximal % inhibition of viability (UT-SCC-24A [1]; [11]): 70.6 ± 1.3%
drug sensitivity score (UT-SCC-28; [7]): 9.3 ± 2.7 DSS
drug sensitivity score (UT-SCC-28; [8]): 0.8 ± 1.4 DSS
drug sensitivity score (UT-SCC-28; [9]): 10.8 ± 2.5 DSS
drug sensitivity score (UT-SCC-28; [11]): 5 ± 1.4 DSS
drug sensitivity score (UT-SCC-40; [7]): 24 ± 0.56 DSS
drug sensitivity score (UT-SCC-40; [8]): 16.2 ± 2.5 DSS
drug sensitivity score (UT-SCC-40; [9]): 20.2 ± 1.5 DSS
drug sensitivity score (UT-SCC-40; [10]): 10 ± 0.56 DSS
drug sensitivity score (UT-SCC-40; [11]): 11.6 ± 1.3 DSS
drug sensitivity score (UT-SCC-8; [7]): 13.6 ± 2.6 DSS
drug sensitivity score (UT-SCC-8; [8]): 2.3 ± 2.6 DSS
drug sensitivity score (UT-SCC-8; [9]): 8.03 ± 4.5 DSS
drug sensitivity score (UT-SCC-8; [10]): 7.53 ± 4.9 DSS
drug sensitivity score (UT-SCC-8; [11]): 7.07 ± 2.1 DSS
drug sensitivity score (UT-SCC-81 [5]; [7]): 28.8 ± 3.6 DSS
drug sensitivity score (UT-SCC-81 [5]; [8]): 3.93 ± 2.7 DSS
drug sensitivity score (UT-SCC-81 [5]; [9]): 19.6 ± 1.2 DSS
drug sensitivity score (UT-SCC-81 [5]; [10]): 2.63 ± 2.3 DSS
drug sensitivity score (UT-SCC-81 [5]; [11]): 2.9 ± 0.17 DSS
drug sensitivity score (UT-SCC-42A [6]; [7]): 16.7 ± 2 DSS
drug sensitivity score (UT-SCC-42A [6]; [8]): 8.73 ± 7.5 DSS
drug sensitivity score (UT-SCC-42A [6]; [9]): 16 ± 1.3 DSS
drug sensitivity score (UT-SCC-42A [6]; [10]): 9.63 ± 2.4 DSS
drug sensitivity score (UT-SCC-42A [6]; [11]): 11.4 ± 1.6 DSS
drug sensitivity score (UT-SCC-106A; [7]): 16.8 ± 1.1 DSS
drug sensitivity score (UT-SCC-106A; [8]): 1.2 ± 0.56 DSS
drug sensitivity score (UT-SCC-106A; [9]): 18.7 ± 0.38 DSS
drug sensitivity score (UT-SCC-106A; [10]): 1.07 ± 1.1 DSS
drug sensitivity score (UT-SCC-106A; [11]): 19 ± 1.2 DSS
drug sensitivity score (UT-SCC-24B; [7]): 9.43 ± 5.1 DSS
drug sensitivity score (UT-SCC-24B; [8]): 8.77 ± 1.4 DSS
drug sensitivity score (UT-SCC-24B; [9]): 10 ± 1.8 DSS
drug sensitivity score (UT-SCC-24B; [10]): 5.97 ± 2.3 DSS
drug sensitivity score (UT-SCC-24B; [11]): 13 ± 6 DSS
drug sensitivity score (UT-SCC-42B; [7]): 24.1 ± 2.8 DSS
drug sensitivity score (UT-SCC-42B; [9]): 12.4 ± 1.9 DSS
drug sensitivity score (UT-SCC-42B; [10]): 2.6 ± 0.1 DSS
drug sensitivity score (UT-SCC-42B; [11]): 6.27 ± 1.4 DSS
drug sensitivity score (UT-SCC-14; [7]): 11.2 ± 3.2 DSS
drug sensitivity score (UT-SCC-14; [8]): 7.5 ± 1.5 DSS
drug sensitivity score (UT-SCC-14; [9]): 7.13 ± 0.64 DSS
drug sensitivity score (UT-SCC-14; [10]): 5 ± 0.98 DSS
drug sensitivity score (UT-SCC-14; [11]): 2.67 ± 3 DSS
drug sensitivity score (UT-SCC-73; [7]): 24.7 ± 0.5 DSS
drug sensitivity score (UT-SCC-73; [8]): 13.8 ± 6 DSS
drug sensitivity score (UT-SCC-73; [9]): 21.4 ± 1.6 DSS
drug sensitivity score (UT-SCC-73; [10]): 12.9 ± 0.38 DSS
drug sensitivity score (UT-SCC-73; [11]): 17.5 ± 1.3 DSS
drug sensitivity score (UT-SCC-44; [7]): 21.6 ± 1.5 DSS
drug sensitivity score (UT-SCC-44; [8]): 3.67 ± 1.4 DSS
drug sensitivity score (UT-SCC-44; [9]): 14.8 ± 1.2 DSS
drug sensitivity score (UT-SCC-44; [10]): 5.27 ± 2.8 DSS
drug sensitivity score (UT-SCC-44; [11]): 12.9 ± 0.4 DSS

relative IC50 (UT-SCC-81 [2]; [7]): 14.2 nM
relative IC50 (UT-SCC-81 [2]; [8]): 924 nM
relative IC50 (UT-SCC-81 [2]; [9]): 61.6 nM
relative IC50 (UT-SCC-81 [2]; [11]): 850 nM
relative IC50 (UT-SCC-42A [3]; [7]): 36.3 nM
relative IC50 (UT-SCC-42A [3]; [8]): 94.1 nM
relative IC50 (UT-SCC-42A [3]; [9]): 20.8 nM
relative IC50 (UT-SCC-42A [3]; [11]): 41.5 nM
relative IC50 (UT-SCC-24A [4]; [7]): 3.14 nM
relative IC50 (UT-SCC-24A [4]; [9]): 8.76 nM
relative IC50 (UT-SCC-24A [4]; [11]): 9.97 nM
Compound: COc1cc(F)c(F)c(Nc2ccc(I)cc2F)c1NS(=O)(=O)C1(C[C@H](O)CO)CC1 [Refametinib]
maximal % inhibition of viability (UT-SCC-24A [1]; [7]): 84.4 ± 1.8%
maximal % inhibition of viability (UT-SCC-24A [1]; [8]): 73.9 ± 0.81%
maximal % inhibition of viability (UT-SCC-24A [1]; [9]): 80.4 ± 2.4%
maximal % inhibition of viability (UT-SCC-24A [1]; [10]): 59.7 ± 7.4%
maximal % inhibition of viability (UT-SCC-24A [1]; [11]): 75.4 ± 3.4%
drug sensitivity score (UT-SCC-28; [7]): 9.8 ± 1.8 DSS
drug sensitivity score (UT-SCC-28; [8]): 4.67 ± 4.2 DSS
drug sensitivity score (UT-SCC-28; [9]): 13.2 ± 2.8 DSS
drug sensitivity score (UT-SCC-28; [11]): 4.4 ± 2.4 DSS
drug sensitivity score (UT-SCC-40; [7]): 26.9 ± 1.2 DSS
drug sensitivity score (UT-SCC-40; [8]): 16.8 ± 2 DSS
drug sensitivity score (UT-SCC-40; [9]): 22.5 ± 1.8 DSS
drug sensitivity score (UT-SCC-40; [10]): 14.3 ± 1.1 DSS
drug sensitivity score (UT-SCC-40; [11]): 14.1 ± 1.1 DSS
drug sensitivity score (UT-SCC-8; [7]): 15.7 ± 1.7 DSS
drug sensitivity score (UT-SCC-8; [8]): 6.63 ± 3.1 DSS
drug sensitivity score (UT-SCC-8; [9]): 12.5 ± 1.5 DSS
drug sensitivity score (UT-SCC-8; [10]): 10.3 ± 2 DSS
drug sensitivity score (UT-SCC-8; [11]): 10.9 ± 2.8 DSS
drug sensitivity score (UT-SCC-81 [5]; [7]): 29.8 ± 2 DSS
drug sensitivity score (UT-SCC-81 [5]; [8]): 5.87 ± 0.35 DSS
drug sensitivity score (UT-SCC-81 [5]; [9]): 21.1 ± 1.4 DSS
drug sensitivity score (UT-SCC-81 [5]; [10]): 5.53 ± 1.2 DSS
drug sensitivity score (UT-SCC-81 [5]; [11]): 8.8 ± 0.96 DSS
drug sensitivity score (UT-SCC-42A [6]; [7]): 18 ± 1.1 DSS
drug sensitivity score (UT-SCC-42A [6]; [8]): 8.7 ± 1.7 DSS
drug sensitivity score (UT-SCC-42A [6]; [9]): 19.2 ± 0.8 DSS
drug sensitivity score (UT-SCC-42A [6]; [10]): 11.5 ± 1.4 DSS
drug sensitivity score (UT-SCC-42A [6]; [11]): 15.3 ± 0.1 DSS
drug sensitivity score (UT-SCC-106A; [7]): 17.8 ± 1.8 DSS
drug sensitivity score (UT-SCC-106A; [8]): 3.97 ± 0.67 DSS
drug sensitivity score (UT-SCC-106A; [9]): 21.6 ± 1.2 DSS
drug sensitivity score (UT-SCC-106A; [10]): 5.3 ± 0.82 DSS
drug sensitivity score (UT-SCC-106A; [11]): 20.4 ± 0.42 DSS
drug sensitivity score (UT-SCC-24B; [7]): 12.4 ± 0.7 DSS
drug sensitivity score (UT-SCC-24B; [8]): 10.4 ± 1.8 DSS
drug sensitivity score (UT-SCC-24B; [9]): 11.8 ± 0.98 DSS
drug sensitivity score (UT-SCC-24B; [10]): 6.87 ± 1 DSS
drug sensitivity score (UT-SCC-24B; [11]): 16.4 ± 2.1 DSS
drug sensitivity score (UT-SCC-42B; [7]): 25.5 ± 1.9 DSS
drug sensitivity score (UT-SCC-42B; [9]): 15.7 ± 1.7 DSS
drug sensitivity score (UT-SCC-42B; [10]): 5.27 ± 0.5 DSS
drug sensitivity score (UT-SCC-42B; [11]): 8.27 ± 1.1 DSS
drug sensitivity score (UT-SCC-14; [7]): 13.5 ± 4.8 DSS
drug sensitivity score (UT-SCC-14; [8]): 9.87 ± 1.7 DSS
drug sensitivity score (UT-SCC-14; [9]): 10.9 ± 3.1 DSS
drug sensitivity score (UT-SCC-14; [10]): 8.53 ± 0.47 DSS
drug sensitivity score (UT-SCC-14; [11]): 5.8 ± 2.8 DSS
drug sensitivity score (UT-SCC-73; [7]): 25 ± 1.3 DSS
drug sensitivity score (UT-SCC-73; [8]): 16 ± 3.4 DSS
drug sensitivity score (UT-SCC-73; [9]): 24 ± 0.8 DSS
drug sensitivity score (UT-SCC-73; [10]): 15.1 ± 1.1 DSS
drug sensitivity score (UT-SCC-73; [11]): 20 ± 1.4 DSS
drug sensitivity score (UT-SCC-44; [7]): 23.7 ± 1.5 DSS
drug sensitivity score (UT-SCC-44; [8]): 8.1 ± 2.3 DSS
drug sensitivity score (UT-SCC-44; [9]): 18.2 ± 2.5 DSS
drug sensitivity score (UT-SCC-44; [10]): 7.4 ± 1.2 DSS
drug sensitivity score (UT-SCC-44; [11]): 15.3 ± 0.64 DSS
